According to US4604234A, “Protein having cell growth stimulating action, composition thereof and method for producing the same” (priority 1983, dated 1986):
Read-outs that look alike come from different tables or passages of the source.

Columns and labels:
[1] = system: BHK-21 cells; test: Effects of WHS on BHK-21 cells in the presence of steroids; assay type: cell-based, hamster; settings: steroid 50 μg/ml alone
[2] = system: BHK-21 cells; test: Inhibitory effects of steroids on BHK-21 cells; assay type: cell-based, hamster; settings: for activity at 0.5 µg/mL / activity at 1 µg/mL / activity at 5 µg/mL / activity at 25 µg/mL / activity at 50 µg/mL: Mesocricetus auratus, read-out: % of control cell numbers
[3] = system: human cutaneous fibroblasts; settings: cited from earlier work; for growth inhibition of incubated human cutaneous fibroblasts: listed in descending order of inhibition
[4] = system: mouse fibroblasts; settings: with protoplasmic vacuolation; cited from earlier work
[5] = BHK-21, 48 h, 0.5 μg/ml, 2 days
[6] = BHK-21, 48 h, 1.0 μg/ml, 2 days
[7] = BHK-21, 48 h, 5.0 μg/ml, 2 days
[8] = BHK-21, 48 h, 25.0 μg/ml, 2 days
[9] = BHK-21, 48 h, 50.0 μg/ml, 2 days
[10] = BHK-21, 96 h, 0.5 μg/ml, 4 days
[11] = BHK-21, 96 h, 1.0 μg/ml, 4 days
[12] = BHK-21, 96 h, 5.0 μg/ml, 4 days
[13] = BHK-21, 96 h, 25.0 μg/ml, 4 days
[14] = BHK-21, 96 h, 50.0 μg/ml, 4 days
[15] = BHK-21, 144 h, 0.5 μg/ml, 6 days
[16] = BHK-21, 144 h, 1.0 μg/ml, 6 days
[17] = BHK-21, 144 h, 5.0 μg/ml, 6 days
[18] = BHK-21, 144 h, 25.0 μg/ml, 6 days
[19] = BHK-21, 144 h, 50.0 μg/ml, 6 days

C[C@@H]1C[C@H]2[C@@H]3CCC4=CC(=O)C=C[C@]4(C)[C@@]3(F)[C@@H](O)C[C@]2(C)[C@@]1(O)C(=O)CO [Dexamethasone, dexamethasone]
cell numbers ([1]; 2nd day): 0.87 × 10^5 cells/dish
cell numbers ([1]; 4th day): 1.28 × 10^5 cells/dish
cell numbers ([2]; 0.5 μg/ml, 2 days): 0.92 × 10^5 cells/dish
cell numbers ([2]; 0.5 μg/ml, 4 days): 2.32 × 10^5 cells/dish
cell numbers ([2]; 0.5 μg/ml, 6 days): 2.51 × 10^5 cells/dish
cell numbers ([2]; 1.0 μg/ml, 2 days): 0.87 × 10^5 cells/dish
cell numbers ([2]; 1.0 μg/ml, 4 days): 2.31 × 10^5 cells/dish
cell numbers ([2]; 1.0 μg/ml, 6 days): 2.54 × 10^5 cells/dish
cell numbers ([2]; 5.0 μg/ml, 2 days): 0.84 × 10^5 cells/dish
cell numbers ([2]; 5.0 μg/ml, 4 days): 2.22 × 10^5 cells/dish
cell numbers ([2]; 5.0 μg/ml, 6 days): 2.57 × 10^5 cells/dish
cell numbers ([2]; 25.0 μg/ml, 2 days): 0.71 × 10^5 cells/dish
cell numbers ([2]; 25.0 μg/ml, 4 days): 1.71 × 10^5 cells/dish
cell numbers ([2]; 25.0 μg/ml, 6 days): 2.33 × 10^5 cells/dish
cell numbers ([2]; 50.0 μg/ml, 2 days): 0.62 × 10^5 cells/dish
cell numbers ([2]; 50.0 μg/ml, 4 days): 1.24 × 10^5 cells/dish
cell numbers ([2]; 50.0 μg/ml, 6 days): 1.84 × 10^5 cells/dish
activity at 0.5 µg/mL [2, 5]: 94.8%
activity at 1 µg/mL [2, 6]: 89.7%
activity at 5 µg/mL [2, 7]: 86.6%
activity at 25 µg/mL [2, 8]: 73.2%
activity at 50 µg/mL [2, 9]: 63.9%
activity at 0.5 µg/mL [2, 10]: 87.2%
activity at 1 µg/mL [2, 11]: 86.8%
activity at 5 µg/mL [2, 12]: 83.5%
activity at 25 µg/mL [2, 13]: 64.3%
activity at 50 µg/mL [2, 14]: 46.6%
activity at 0.5 µg/mL [2, 15]: 97.3%
activity at 1 µg/mL [2, 16]: 98.4%
activity at 5 µg/mL [2, 17]: 99.6%
activity at 25 µg/mL [2, 18]: 90.3%
activity at 50 µg/mL [2, 19]: 71.3%

C[C@]12CCC(=O)C=C1CC[C@@H]1[C@@H]2[C@@H](O)C[C@@]2(C)[C@H]1CC[C@]2(O)C(=O)CO [Hydrocortisone, hydrocortisone]
growth inhibition of incubated human cutaneous fibroblasts [3]: inhibited
cell numbers ([1]; 2nd day): 8.2 × 10^5 cells/dish
cell numbers ([1]; 4th day): 12.6 × 10^5 cells/dish
cell numbers ([2]; 0.5 μg/ml, 2 days): 13.0 × 10^5 cells/dish
cell numbers ([2]; 0.5 μg/ml, 4 days): 24.0 × 10^5 cells/dish
cell numbers ([2]; 0.5 μg/ml, 6 days): 25.6 × 10^5 cells/dish
cell numbers ([2]; 1.0 μg/ml, 2 days): 12.5 × 10^5 cells/dish
cell numbers ([2]; 1.0 μg/ml, 4 days): 23.8 × 10^5 cells/dish
cell numbers ([2]; 1.0 μg/ml, 6 days): 25.1 × 10^5 cells/dish
cell numbers ([2]; 5.0 μg/ml, 2 days): 12.0 × 10^5 cells/dish
cell numbers ([2]; 5.0 μg/ml, 4 days): 21.9 × 10^5 cells/dish
cell numbers ([2]; 5.0 μg/ml, 6 days): 25.2 × 10^5 cells/dish
cell numbers ([2]; 25.0 μg/ml, 2 days): 9.3 × 10^5 cells/dish
cell numbers ([2]; 25.0 μg/ml, 4 days): 17.1 × 10^5 cells/dish
cell numbers ([2]; 25.0 μg/ml, 6 days): 22.6 × 10^5 cells/dish
cell numbers ([2]; 50.0 μg/ml, 2 days): 8.2 × 10^5 cells/dish
cell numbers ([2]; 50.0 μg/ml, 4 days): 10.8 × 10^5 cells/dish
cell numbers ([2]; 50.0 μg/ml, 6 days): 10.0 × 10^5 cells/dish
activity at 0.5 µg/mL [2, 5]: 105%
activity at 1 µg/mL [2, 6]: 101%
activity at 5 µg/mL [2, 7]: 96.8%
activity at 25 µg/mL [2, 8]: 75%
activity at 50 µg/mL [2, 9]: 66.1%
activity at 0.5 µg/mL [2, 10]: 92.7%
activity at 1 µg/mL [2, 11]: 91.7%
activity at 5 µg/mL [2, 12]: 84.6%
activity at 25 µg/mL [2, 13]: 66%
activity at 50 µg/mL [2, 14]: 41.7%
activity at 0.5 µg/mL [2, 15]: 98.5%
activity at 1 µg/mL [2, 16]: 96.5%
activity at 5 µg/mL [2, 17]: 96.9%
activity at 25 µg/mL [2, 18]: 86.9%
activity at 50 µg/mL [2, 19]: 40%

C[C@]12C=CC(=O)C=C1CC[C@@H]1[C@@H]2[C@@H](O)C[C@@]2(C)[C@H]1CC[C@]2(O)C(=O)CO [Prednisolone, prednisolone]
cell numbers ([1]; 2nd day): 0.78 × 10^5 cells/dish
cell numbers ([1]; 4th day): 0.94 × 10^5 cells/dish
cell numbers ([2]; 0.5 μg/ml, 2 days): 1.20 × 10^5 cells/dish
cell numbers ([2]; 0.5 μg/ml, 4 days): 2.43 × 10^5 cells/dish
cell numbers ([2]; 0.5 μg/ml, 6 days): 2.51 × 10^5 cells/dish
cell numbers ([2]; 1.0 μg/ml, 2 days): 1.20 × 10^5 cells/dish
cell numbers ([2]; 1.0 μg/ml, 4 days): 2.45 × 10^5 cells/dish
cell numbers ([2]; 1.0 μg/ml, 6 days): 2.50 × 10^5 cells/dish
cell numbers ([2]; 5.0 μg/ml, 2 days): 1.09 × 10^5 cells/dish
cell numbers ([2]; 5.0 μg/ml, 4 days): 2.33 × 10^5 cells/dish
cell numbers ([2]; 5.0 μg/ml, 6 days): 2.48 × 10^5 cells/dish
cell numbers ([2]; 25.0 μg/ml, 2 days): 0.85 × 10^5 cells/dish
cell numbers ([2]; 25.0 μg/ml, 4 days): 1.49 × 10^5 cells/dish
cell numbers ([2]; 25.0 μg/ml, 6 days): 1.91 × 10^5 cells/dish
cell numbers ([2]; 50.0 μg/ml, 2 days): 0.73 × 10^5 cells/dish
cell numbers ([2]; 50.0 μg/ml, 4 days): 1.01 × 10^5 cells/dish
cell numbers ([2]; 50.0 μg/ml, 6 days): 0.98 × 10^5 cells/dish
activity at 0.5 µg/mL [2, 5]: 91.6%
activity at 1 µg/mL [2, 6]: 91.6%
activity at 5 µg/mL [2, 7]: 83.2%
activity at 25 µg/mL [2, 8]: 64.9%
activity at 50 µg/mL [2, 9]: 55.7%
activity at 0.5 µg/mL [2, 10]: 89.3%
activity at 1 µg/mL [2, 11]: 90.1%
activity at 5 µg/mL [2, 12]: 85.7%
activity at 25 µg/mL [2, 13]: 54.8%
activity at 50 µg/mL [2, 14]: 37.1%
activity at 0.5 µg/mL [2, 15]: 94.7%
activity at 1 µg/mL [2, 16]: 94.3%
activity at 5 µg/mL [2, 17]: 93.6%
activity at 25 µg/mL [2, 18]: 72.1%
activity at 50 µg/mL [2, 19]: 37%

CCCCC(=O)O[C@]1(C(=O)CO)[C@@H](C)C[C@H]2[C@@H]3CCC4=CC(=O)C=C[C@]4(C)[C@@]3(F)[C@@H](O)C[C@@]21C [betamethasone-17-valerate]
growth inhibition of incubated human cutaneous fibroblasts [3]: inhibited

CCC(=O)OCC(=O)[C@@]1(OC(=O)CC)[C@@H](C)C[C@H]2[C@@H]3CCC4=CC(=O)C=C[C@]4(C)[C@@]3(F)[C@@H](O)C[C@@]21C [betamethasonedipropionate]
growth inhibition of incubated human cutaneous fibroblasts [3]: inhibited

CCC(=O)O[C@]1(C(=O)CCl)[C@@H](C)C[C@H]2[C@@H]3CCC4=CC(=O)C=C[C@]4(C)[C@@]3(F)[C@@H](O)C[C@@]21C [clobetasol-17-propionate]
denaturation of human fibroblastic nuclei and protoplasms ([3]; 25 μg/ml): caused human fibroblastic nuclei and protoplasms to denature
growth inhibition of incubated human cutaneous fibroblasts [3]: inhibited

C[C@]12CCC(=O)C=C1CC[C@@H]1[C@@H]2[C@@H](O)C[C@@]2(C)[C@H]1CC[C@]2(O)C(=O)CO [cortisol]
growth of incubated mouse fibroblasts [4]: inhibited growth

CCCC(=O)O[C@]1(C(=O)CO)CC[C@H]2[C@@H]3CCC4=CC(=O)CC[C@]4(C)[C@H]3[C@@H](O)C[C@@]21C [hydrocortisone-butylate]
growth inhibition of incubated human cutaneous fibroblasts [3]: inhibited
